{
  "source": "patent US10131652B2",
  "about": "“Pyrimidinyloxy benzene derivatives as herbicides” (E. I. DU PONT DE NEMOURS AND COMPANY, priority 2014, dated 2018)",
  "format_in_all_cases": "in vivo",
  "key": {"[1]": {"system": "rice (Oryza sativa)", "assay": "Test C flooded paddy test plant response", "conditions": "Oryza sativa; Flood, 250 g ai/ha; scale of 0 to 100 where 0 is no effect and 100 is complete control; 13 to 15 days; read-out: Rice plant response rating", "summary_of_the_method": "(§1)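 Flooded-pot format, 3 cm water over soil maintained for the test duration; test compounds dispensed into the water at the 2-leaf stage. Greenhouse holding 13 to 15 days. Plants evaluated visually relative to untreated controls, 0 meaning no effect and 100 complete control.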"}, "[2]": {"system": "small-flower umbrella sedge (Cyperus difformis)", "assay": "Test C flooded paddy test plant response", "conditions": "Cyperus difformis; Flood, 250 g ai/ha; scale of 0 to 100 where 0 is no effect and 100 is complete control; 13 to 15 days; read-out: Sedge, Umbrella plant response rating", "summary_of_the_method": "as §1"}, "[3]": {"system": "barnyardgrass (Echinochloa crus-galli)", "assay": "Test C flooded paddy test plant response", "conditions": "Echinochloa crus-galli; Flood, 250 g ai/ha; scale of 0 to 100 where 0 is no effect and 100 is complete control; 13 to 15 days; read-out: Barnyardgrass plant response rating", "summary_of_the_method": "as §1"}, "[4]": {"system": "ducksalad (Heteranthera limosa)", "assay": "Test C flooded paddy test plant response", "conditions": "Heteranthera limosa; Flood, 250 g ai/ha; scale of 0 to 100 where 0 is no effect and 100 is complete control; 13 to 15 days; read-out: Ducksalad plant response rating", "summary_of_the_method": "as §1"}, "[5]": {"system": "corn (Zea mays)", "assay": "Test B pre-/postemergence plant response", "conditions": "for Corn plant response rating (crop injury, 0 = no effect, 100 = complete kill) at 500 g/ha: 500 g ai/ha", "summary_of_the_method": "(§2)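 Visual injury rating, 0 (no effect) to 100 (complete control), vs untreated controls after ~10 d greenhouse. Pre: directed soil spray after planting in loam/sand. Post: plants 2–10 cm, 1–2 leaf stage. Compound in non-phytotoxic solvent plus surfactant.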"}, "[6]": {"system": "barnyardgrass (Echinochloa crus-galli)", "assay": "Test B pre-/postemergence plant response", "conditions": "for pest or weed control at 500 g/ha: 500 g ai/ha", "summary_of_the_method": "as §2"}, "[7]": {"system": "pigweed (Amaranthus retroflexus)", "assay": "Test B pre-/postemergence plant response", "conditions": "for pest or weed control at 500 g/ha: 500 g ai/ha", "summary_of_the_method": "as §2"}, "[8]": {"system": "wheat (Triticum aestivum)", "assay": "Test B pre-/postemergence plant response", "conditions": "for plant injury at 500 g/ha: 500 g ai/ha", "summary_of_the_method": "as §2"}, "[9]": {"system": "giant foxtail (Setaria faberii)", "assay": "Test B pre-/postemergence plant response", "conditions": "for pest or weed control at 500 g/ha: 500 g ai/ha", "summary_of_the_method": "as §2"}, "[10]": {"system": "yellow nutsedge (Cyperus esculentus)", "assay": "Test D pre-/postemergence plant response", "conditions": "Cyperus; for pest or weed control at 16 g/ha: 16 g ai/ha; for pest or weed control at 31 g/ha: 31 g ai/ha; for pest or weed control at 62 g/ha: 62 g ai/ha; for pest or weed control at 125 g/ha: 125 g ai/ha", "summary_of_the_method": "(§3)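 Seeds sown in loam–sand blend got preemergence sprays of test chemicals in a non-phytotoxic solvent with surfactant; postemergence sprays went on plants at 1- to 4-leaf stage (2 to 18 cm) in peat/vermiculite medium. After 13 to 15 days in greenhouse, visual injury versus controls scored 0 (no effect) to 100 (complete control).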"}, "[11]": {"system": "winter wheat (Triticum aestivum)", "assay": "Test D pre-/postemergence plant response", "conditions": "Triticum aestivum, post-emergence, Postemergence", "summary_of_the_method": "as §3"}, "[12]": {"conditions": "Preemergence, 125 g ai/ha, 0 to 100 scale (0 no effect, 100 complete control)"}, "[13]": {"conditions": "pre-emergence, Preemergence, scale 0 to 100 (0 no effect, 100 complete control), read-out: Plant response rating, Nutsedge, Yellow"}},
  "note": "Where two headings read alike, the source gives them in different places.",
  "data": [
    {"compound": "FC(F)(F)c1cc(-c2ccccc2Oc2ncc(Cl)cn2)no1", "note": "[Compound 200, 5-chloro-2-[2-[5-(trifluoromethyl)-3-isoxazolyl]phenoxy]pyrimidine]", "values": [
      {"measurement": "plant injury at 250 g/ha", "setting": "[1]", "result": 35, "unit": "%"},
      {"measurement": "pest or weed control at 250 g/ha", "setting": "[2]", "result": 100, "unit": "%"},
      {"measurement": "pest or weed control at 250 g/ha", "setting": "[3]", "result": 90, "unit": "%"},
      {"measurement": "pest or weed control at 250 g/ha", "setting": "[4]", "result": 100, "unit": "%"},
      {"measurement": "Corn plant response rating", "setting": "[5]; [12]", "result": 20},
      {"measurement": "Corn plant response rating (crop injury, 0 = no effect, 100 = complete kill) at 125 g/ha", "setting": "[5]; Zea mays, post-emergence, 240 h, 125 g ai/ha, postemergence, 0 to 100 scale, 0 no effect, 100 complete control", "result": 50, "unit": "%"},
      {"measurement": "Corn plant response rating (crop injury, 0 = no effect, 100 = complete kill) at 500 g/ha", "setting": "[5]; Zea mays, post-emergence, 240 h, postemergence, 0 to 100 scale, 0 no effect, 100 complete control", "result": 90, "unit": "%"},
      {"measurement": "Corn plant response rating (crop injury, 0 = no effect, 100 = complete kill) at 500 g/ha", "setting": "[5]; Zea mays, pre-emergence, 240 h, Preemergence, 0 to 100 scale where 0 is no effect and 100 is complete control", "result": 100, "unit": "%"},
      {"measurement": "pest or weed control at 125 g/ha", "setting": "[6]; Echinochloa crus-galli, post-emergence, 240 h, 125 g ai/ha, postemergence, 0 to 100 scale, 0 no effect, 100 complete control, read-out: Plant response rating, Barnyardgrass", "result": 90, "unit": "%"},
      {"measurement": "pest or weed control at 500 g/ha", "setting": "[6]; Echinochloa crus-galli, post-emergence, 240 h, postemergence, 0 to 100 scale, 0 no effect, 100 complete control, read-out: Plant response rating, Barnyardgrass", "result": 100, "unit": "%"},
      {"measurement": "pest or weed control at 500 g/ha", "setting": "[6]; Echinochloa crus-galli, pre-emergence, 240 h, Preemergence, 0 to 100 scale where 0 is no effect and 100 is complete control, read-out: Plant response rating, Barnyardgrass", "result": 100, "unit": "%"},
      {"measurement": "Barnyardgrass plant response rating", "setting": "[6]; [12]", "result": 100},
      {"measurement": "pest or weed control at 125 g/ha", "setting": "[7]; Amaranthus retroflexus, post-emergence, 240 h, 125 g ai/ha, postemergence, 0 to 100 scale, 0 no effect, 100 complete control, read-out: Plant response rating, Pigweed", "result": 100, "unit": "%"},
      {"measurement": "pest or weed control at 500 g/ha", "setting": "[7]; Amaranthus retroflexus, post-emergence, 240 h, postemergence, 0 to 100 scale, 0 no effect, 100 complete control, read-out: Plant response rating, Pigweed", "result": 100, "unit": "%"},
      {"measurement": "pest or weed control at 500 g/ha", "setting": "[7]; Amaranthus retroflexus, pre-emergence, 240 h, Preemergence, 0 to 100 scale where 0 is no effect and 100 is complete control, read-out: Plant response rating, Pigweed", "result": 100, "unit": "%"},
      {"measurement": "Pigweed plant response rating", "setting": "[7]; [12]", "result": 100},
      {"measurement": "Wheat plant response rating", "setting": "[8]; [12]", "result": 20},
      {"measurement": "plant injury at 125 g/ha", "setting": "[8]; Triticum aestivum, post-emergence, 240 h, 125 g ai/ha, postemergence, 0 to 100 scale, 0 no effect, 100 complete control, read-out: Plant response rating, Wheat", "result": 60, "unit": "%"},
      {"measurement": "plant injury at 500 g/ha", "setting": "[8]; Triticum aestivum, post-emergence, 240 h, postemergence, 0 to 100 scale, 0 no effect, 100 complete control, read-out: Plant response rating, Wheat", "result": 100, "unit": "%"},
      {"measurement": "plant injury at 500 g/ha", "setting": "[8]; Triticum aestivum, pre-emergence, 240 h, Preemergence, 0 to 100 scale where 0 is no effect and 100 is complete control, read-out: Plant response rating, Wheat", "result": 90, "unit": "%"},
      {"measurement": "Foxtail, Giant plant response rating", "setting": "[9]; [12]", "result": 100},
      {"measurement": "pest or weed control at 125 g/ha", "setting": "[9]; Setaria faberi, post-emergence, 240 h, 125 g ai/ha, postemergence, 0 to 100 scale, 0 no effect, 100 complete control, read-out: Plant response rating, Foxtail, Giant", "result": 100, "unit": "%"},
      {"measurement": "pest or weed control at 500 g/ha", "setting": "[9]; Setaria faberi, post-emergence, 240 h, postemergence, 0 to 100 scale, 0 no effect, 100 complete control, read-out: Plant response rating, Foxtail, Giant", "result": 100, "unit": "%"},
      {"measurement": "pest or weed control at 500 g/ha", "setting": "[9]; Setaria faberi, pre-emergence, 240 h, Preemergence, 0 to 100 scale where 0 is no effect and 100 is complete control, read-out: Plant response rating, Foxtail, Giant", "result": 100, "unit": "%"},
      {"measurement": "pest or weed control at 16 g/ha", "setting": "[10]; post-emergence, Postemergence, read-out: Plant response rating (scale 0 to 100), Nutsedge, Yellow", "result": 5, "unit": "%"},
      {"measurement": "pest or weed control at 31 g/ha", "setting": "[10]; post-emergence, Postemergence, scale 0 to 100 (0 no effect, 100 complete control), read-out: Nutsedge, Yellow plant response rating", "result": 5, "unit": "%"},
      {"measurement": "pest or weed control at 62 g/ha", "setting": "[10]; post-emergence, Postemergence, scale 0 to 100, 0 no effect, 100 complete control, read-out: Nutsedge, Yellow plant response rating", "result": 5, "unit": "%"},
      {"measurement": "pest or weed control at 125 g/ha", "setting": "[10]; post-emergence, Postemergence, scale 0 to 100, 0 no effect, 100 complete control, read-out: Plant response rating, Nutsedge, Yellow", "result": 15, "unit": "%"},
      {"measurement": "pest or weed control at 125 g/ha", "setting": "[10]; pre-emergence, Preemergence, read-out: Plant response rating (scale 0 to 100), Nutsedge, Yellow", "result": 15, "unit": "%"},
      {"measurement": "pest or weed control at 16 g/ha", "setting": "[10]; [13]", "result": 0, "unit": "%"},
      {"measurement": "pest or weed control at 31 g/ha", "setting": "[10]; [13]", "result": 0, "unit": "%"},
      {"measurement": "pest or weed control at 62 g/ha", "setting": "[10]; [13]", "result": 0, "unit": "%"},
      {"measurement": "plant injury at 16 g/ha", "setting": "[11]; 16 g ai/ha, read-out: Plant response rating (scale 0 to 100), Wheat", "result": 5, "unit": "%"},
      {"measurement": "plant injury at 31 g/ha", "setting": "[11]; 31 g ai/ha, scale 0 to 100 (0 no effect, 100 complete control), read-out: Wheat plant response rating", "result": 10, "unit": "%"},
      {"measurement": "plant injury at 62 g/ha", "setting": "[11]; 62 g ai/ha, scale 0 to 100, 0 no effect, 100 complete control, read-out: Wheat plant response rating", "result": 25, "unit": "%"},
      {"measurement": "plant injury at 125 g/ha", "setting": "[11]; 125 g ai/ha, scale 0 to 100, 0 no effect, 100 complete control, read-out: Plant response rating, Wheat", "result": 20, "unit": "%"}
    ]}
  ]
}
